Source: ChEMBL document CHEMBL1201862, “PubChem BioAssay data set” (2004)
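Test compounds were applied to cells in 96-well plates for 48 hours at 5 doses. GI50 = concentration required for 50% inhibition of growth.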 The source made the active and inactive calls. No stated cut-off is given here; in the data, active = GI50 up to about 1.1 µM and inactive = higher.

What was measured:
Experiment in all cases: inhibition of tumour cell growth, NCI panel, 48 h
OVCAR-8 = system: OVCAR-8
CAKI-1 = system: CAKI-1
786-0 = system: 786-0
HCT-116 = system: HCT-116
A498 = system: A498
A549 = system: A549
DLD-1 = system: DLD-1
NCI-H522 = system: NCI-H522
SF-268 = system: SF-268
OVCAR-5 = system: OVCAR-5
U-251 = system: U-251
SR = system: SR
K562 = system: K562
SK-MEL-28 = system: SK-MEL-28
HCC 2998 = system: HCC 2998
EKVX = system: EKVX
DMS-114 = system: DMS-114
Malme-3M = system: Malme-3M
KM12 = system: KM12
RXF 631 = system: RXF 631
NCI-H23 = system: NCI-H23
SN12C = system: SN12C
UO-31 = system: UO-31
HT-29 = system: HT-29
HCT-15 = system: HCT-15
SNB-78 = system: SNB-78
IGROV-1 = system: IGROV-1
MOLT-4 = system: MOLT-4
SK-OV-3 = system: SK-OV-3
LOX IMVI = system: LOX IMVI
NCI-H460 = system: NCI-H460
KM-20L2 = system: KM-20L2
UACC-257 = system: UACC-257
RXF 393 = system: RXF 393
SNB-19 = system: SNB-19
RPMI-8226 = system: RPMI-8226
HL-60 = system: HL-60
HOP-62 = system: HOP-62
LXFL 529 = system: LXFL 529
SNB-75 = system: SNB-75
SF-295 = system: SF-295
XF498 = system: XF498
HOP-92 = system: HOP-92
HOP-18 = system: HOP-18
DMS-273 = system: DMS-273
UACC-62 = system: UACC-62
NCI-H226 = system: NCI-H226
SK-MEL-5 = system: SK-MEL-5
SK-MEL-2 = system: SK-MEL-2
TK-10 = system: TK-10
M14 = system: M14
CCRF-CEM = system: CCRF-CEM
SF-539 = system: SF-539
OVCAR-3 = system: OVCAR-3
SW-620 = system: SW-620
COLO 205 = system: COLO 205
ACHN = system: ACHN
MDA-N = system: MDA-N
PC-3 = system: PC-3
MDA-MB-435 = system: MDA-MB-435
NCI/ADR-RES = system: NCI/ADR-RES
BT-549 = system: BT-549
MCF7 = system: MCF7
M19-MEL = system: M19-MEL
DU-145 = system: DU-145
Hs-578T = system: Hs-578T
OVCAR-4 = system: OVCAR-4
MDA-MB-231 = system: MDA-MB-231
T47D = system: T47D

In the case of `N#CC1=C(Cl)NC(Cl)=C(C#N)C1c1ccc(Cl)cc1`, the GI50 (OVCAR-8) is reported as 16.2 µM (inactive), the GI50 (CAKI-1) is reported as 17.9 µM (inactive) and the GI50 (786-0) is reported as 15.8 µM (inactive). For the same compound, the GI50 (HCT-116) was 20.2 µM (inactive), the GI50 (A498) was 32.4 µM (inactive) and the GI50 (A549) was 22.1 µM (inactive). The GI50 (DLD-1) was 17.7 µM (inactive), the GI50 (NCI-H522) was 13 µM (inactive) and the GI50 (SF-268) was 18.7 µM (inactive). The GI50 (OVCAR-5) was 34 µM (inactive), the GI50 (U-251) was 16.3 µM (inactive) and the GI50 (SR) was 21.7 µM (inactive). The GI50 (K562) was 11.9 µM (inactive), the GI50 (SK-MEL-28) was 22.9 µM (inactive) and the GI50 (HCC 2998) was 19.1 µM (inactive). The GI50 (EKVX) was 19.5 µM (inactive), the GI50 (DMS-114) was 15.2 µM (inactive) and the GI50 (Malme-3M) was 21.3 µM (inactive). The GI50 (KM12) was 17.6 µM (inactive), the GI50 (RXF 631) was 13 µM (inactive) and the GI50 (NCI-H23) was 17.9 µM (inactive). For the same compound, the GI50 (SN12C) was 16.9 µM (inactive), the GI50 (UO-31) was 17 µM (inactive) and the GI50 (HT-29) was 16 µM (inactive). For the same compound, the GI50 (HCT-15) was 15.4 µM, the GI50 (SNB-78) was 25.9 µM (inactive) and the GI50 (IGROV-1) was 18.2 µM (inactive). The GI50 (MOLT-4) was 18.7 µM (inactive), the GI50 (SK-OV-3) was 17.2 µM (inactive) and the GI50 (LOX IMVI) was 16.1 µM (inactive). For the same compound, the GI50 (NCI-H460) was 17 µM (inactive), the GI50 (KM-20L2) was 24.6 µM (inactive) and the GI50 (UACC-257) was 18.3 µM (inactive). The GI50 (RXF 393) was 17.1 µM (inactive), the GI50 (SNB-19) was 16.6 µM (inactive) and the GI50 (RPMI-8226) was 17.5 µM (inactive). The GI50 (HL-60) was 18.5 µM (inactive), the GI50 (HOP-62) was 18.1 µM (inactive) and the GI50 (LXFL 529) was 16.4 µM (inactive). The GI50 (SNB-75) was 14.9 µM (inactive), the GI50 (SF-295) was 27.2 µM (inactive) and the GI50 (XF498) was 14.1 µM (inactive). The GI50 (HOP-92) was 15.2 µM (inactive), the GI50 (HOP-18) was 17.6 µM (inactive) and the GI50 (DMS-273) was 17.1 µM (inactive). The GI50 (UACC-62) was 16.7 µM (inactive), the GI50 (NCI-H226) was 20.5 µM (inactive) and the GI50 (SK-MEL-5) was 17 µM (inactive). For the same compound, the GI50 (SK-MEL-2) was 13.9 µM (inactive), the GI50 (TK-10) was 18 µM (inactive) and the GI50 (M14) was 16.8 µM (inactive). The GI50 (CCRF-CEM) was 25 µM (inactive), the GI50 (SF-539) was 18.1 µM (inactive) and the GI50 (OVCAR-3) was 14 µM (inactive). The GI50 (SW-620) was 13.5 µM (inactive), the GI50 (COLO 205) was 16.5 µM (inactive) and the GI50 (ACHN) was 17.7 µM (inactive).

With `COC(=O)[C@@]12C(=O)C=CC(=O)[C@@H]1C1C(=CC2COC(C)=O)O[C@@H]2OC3(CCCCC3)O[C@H]12` (stereo partly specified) the GI50 (OVCAR-8) was 7.94 µM (inactive), the GI50 (CAKI-1) was 12.6 µM (inactive) and the GI50 (786-0) was 7.1 µM (inactive). The GI50 (HCT-116) was 5.69 µM (inactive), the GI50 (MDA-N) was 12.6 µM (inactive) and the GI50 (A498) was 22.8 µM (inactive). For the same compound, the GI50 (A549) was 14.5 µM (inactive), the GI50 (DLD-1) was 9.68 µM (inactive) and the GI50 (NCI-H522) was 2.21 µM (inactive). The GI50 (SF-268) was 14.2 µM (inactive), the GI50 (OVCAR-5) was 16.7 µM (inactive) and the GI50 (U-251) was 15.6 µM (inactive). For the same compound, the GI50 (SR) was 3.05 µM (inactive), the GI50 (K562) was 4.15 µM (inactive) and the GI50 (PC-3) was 12.6 µM (inactive). The GI50 (SK-MEL-28) was 17.2 µM (inactive), the GI50 (HCC 2998) was 16.1 µM (inactive) and the GI50 (EKVX) was 15.4 µM (inactive). The GI50 (DMS-114) was 4.92 µM (inactive), the GI50 (Malme-3M) was 15.7 µM (inactive) and the GI50 (KM12) was 13 µM (inactive). The GI50 (RXF 631) was 21.9 µM (inactive), the GI50 (NCI-H23) was 17.1 µM (inactive) and the GI50 (SN12C) was 15.5 µM (inactive). The GI50 (UO-31) was 14.9 µM (inactive), the GI50 (HT-29) was 6.01 µM (inactive) and the GI50 (HCT-15) was 5.66 µM. For the same compound, the GI50 (SNB-78) was 21.5 µM (inactive), the GI50 (IGROV-1) was 16 µM (inactive) and the GI50 (MDA-MB-435) was 16.2 µM (inactive). The GI50 (NCI/ADR-RES) was 12.8 µM (inactive), the GI50 (BT-549) was 13.2 µM (inactive) and the GI50 (MOLT-4) was 3.29 µM (inactive). The GI50 (SK-OV-3) was 16.1 µM (inactive), the GI50 (LOX IMVI) was 9.95 µM (inactive) and the GI50 (NCI-H460) was 16.9 µM (inactive). The GI50 (MCF7) was 14.1 µM (inactive), the GI50 (KM-20L2) was 15.2 µM (inactive) and the GI50 (UACC-257) was 16.3 µM (inactive). For the same compound, the GI50 (RXF 393) was 11.1 µM (inactive), the GI50 (SNB-19) was 16.1 µM (inactive) and the GI50 (RPMI-8226) was 2.99 µM (inactive). For the same compound, the GI50 (HL-60) was 2.89 µM (inactive), the GI50 (HOP-62) was 19.8 µM (inactive) and the GI50 (LXFL 529) was 4.28 µM (inactive). The GI50 (SNB-75) was 13 µM (inactive), the GI50 (M19-MEL) was 15.5 µM (inactive) and the GI50 (SF-295) was 16.1 µM (inactive). The GI50 (DU-145) was 18.3 µM (inactive), the GI50 (XF498) was 13.2 µM (inactive) and the GI50 (HOP-92) was 8.49 µM (inactive). The GI50 (HOP-18) was 10.3 µM (inactive), the GI50 (Hs-578T) was 9.46 µM (inactive) and the GI50 (DMS-273) was 8.61 µM (inactive). For the same compound, the GI50 (UACC-62) was 12.9 µM (inactive), the GI50 (NCI-H226) was 17.2 µM (inactive) and the GI50 (SK-MEL-5) was 18 µM (inactive). For the same compound, the GI50 (OVCAR-4) was 5.24 µM (inactive), the GI50 (MDA-MB-231) was 19.5 µM (inactive) and the GI50 (SK-MEL-2) was 20.2 µM (inactive). For the same compound, the GI50 (T47D) was 3.66 µM (inactive), the GI50 (TK-10) was 8.38 µM (inactive) and the GI50 (M14) was 15.6 µM (inactive). For the same compound, the GI50 (CCRF-CEM) was 8.13 µM (inactive), the GI50 (SF-539) was 10.4 µM (inactive) and the GI50 (OVCAR-3) was 6.37 µM (inactive). For the same compound, the GI50 (SW-620) was 3.75 µM (inactive), the GI50 (COLO 205) was 5.77 µM (inactive) and the GI50 (ACHN) was 9.04 µM (inactive).
